{"source": "paper PMC3307704", "about": "(PLoS ONE, 2012)", "key": {"Human Aβ(1–42)": {"target": "T1, Human Aβ(1–42) (Homo sapiens, UniProt P05067)", "T1 construct": "Human Aβ(1–42) was purchased from AnaSpec (San Jose, CA); purchased AnaSpec (San Jose, CA)", "T1 sequence (P05067 672-713 limits assumed)": "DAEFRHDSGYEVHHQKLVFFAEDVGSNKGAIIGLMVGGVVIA", "assay": "Aβ peptide oligomerization reaction with capture ELISA for Aβ oligomer detection", "format": "biochemical", "conditions": "for inhibition at 1 µM: read-out: Inhibitory activity (Aβ oligomerization)"}, "Murine microglial cells": {"system": "Murine microglial cells", "assay": "Wst-1 assay (cytotoxicity)", "format": "cell-based", "conditions": "24 h"}, "[1]": {"system": "Aβ deposition in aged APP(Swedish)-transgenic mice (Tg2576)", "conditions": "dietary supplement; cited from earlier work"}, "[2]": {"system": "high-molecular weight fibrils (Aβ)", "conditions": "in vitro; read-out: IC50, formation of high-molecular weight fibrils; cited from earlier work"}, "[3]": {"system": "low-molecular weight Aβ oligomers", "conditions": "in vitro; read-out: IC50, formation of low-molecular weight Aβ oligomers; cited from earlier work"}, "Aβ aggregation": {"system": "Aβ aggregation", "conditions": "saturation of the 7-carbon linker; cited from earlier work"}, "[4]": {"conditions": "1 µM compound, 200 nM monomeric Aβ peptide, 37°C, 24 h, capture ELISA"}}, "note": "“Also recorded” adds a separate entry of the source. Read-outs that look alike come from different tables or passages of the source.", "data": [{"molecule": "COc1ccc(/C=C/C(=O)/C=C(O)/C=C/c2ccc(OC)c(O)c2)cc1O", "note": "[compound 1]", "values": [{"measurement": "inhibition at 1 µM", "setting": "Human Aβ(1–42); [4]", "result": 80, "unit": "%"}]}, {"molecule": "COc1ccc(/C=C/C(=O)/C=C(O)/C=C/c2ccc(OC)c(OC)c2)cc1OC", "note": "[compound 2]", "values": [{"measurement": "IC50", "setting": "Human Aβ(1–42)", "result": 0.15, "unit": "µM"}, {"measurement": "Improvement of Aβ aggregation inhibitory activity over curcumin", "setting": "Human Aβ(1–42); ratio of IC50 values versus curcumin", "result": "6-7 fold"}, {"measurement": "inhibition at 1 µM", "setting": "Human Aβ(1–42)", "result": 75, "unit": "%"}, {"measurement": "LD50 value relative to that of curcumin", "setting": "Murine microglial cells; printed as fold lower than curcumin", "result": "approximately 2 fold"}]}, {"molecule": "COc1cc(/C=C/C(=O)/C(C)=C(O)/C=C/c2ccc(O)c(OC)c2)ccc1O", "note": "[compound 3]", "values": [{"measurement": "inhibition at 1 µM", "setting": "Human Aβ(1–42); [4]", "result": 66, "unit": "%"}]}, {"molecule": "COc1cc(/C=C/C(=O)/C(Cc2ccccc2)=C(O)/C=C/c2ccc(O)c(OC)c2)ccc1O", "note": "[compound 4]", "values": [{"measurement": "inhibition at 1 µM", "setting": "Human Aβ(1–42); [4]", "result": 51, "unit": "%"}]}, {"molecule": "COc1cccc(/C=C/C(=O)/C=C(O)/C=C/c2cccc(OC)c2OC)c1OC", "note": "[compound 7]", "values": [{"measurement": "inhibition at 1 µM", "setting": "Human Aβ(1–42); [4]", "result": 45, "unit": "%"}]}, {"molecule": "O=C(/C=C/c1ccc(O)c(O)c1)/C=C/c1ccc(O)c(O)c1", "note": "[compound 8]", "values": [{"measurement": "inhibition at 1 µM", "setting": "Human Aβ(1–42); [4]", "result": 74, "unit": "%"}]}, {"molecule": "COC(=O)c1ccc(/C=C/C(=O)/C=C/c2ccc(C(=O)OC)cc2)cc1", "note": "[compound 9]", "values": [{"measurement": "inhibition at 1 µM", "setting": "Human Aβ(1–42); [4]", "result": 66, "unit": "%"}]}, {"molecule": "O=C(/C=C/c1ccccc1)/C=C/c1ccccc1", "note": "[compound 10]", "values": [{"measurement": "inhibition at 1 µM", "setting": "Human Aβ(1–42); [4]", "result": 65, "unit": "%"}]}, {"molecule": "COc1cc(/C=C/C(=O)/C=C/c2ccccc2)ccc1O", "note": "[compound 11]", "values": [{"measurement": "inhibition at 1 µM", "setting": "Human Aβ(1–42); [4]", "result": 63, "unit": "%"}]}, {"molecule": "COc1ccccc1/C=C/C(=O)/C=C/c1ccccc1OC", "note": "[compound 12]", "values": [{"measurement": "inhibition at 1 µM", "setting": "Human Aβ(1–42); [4]", "result": 63, "unit": "%"}]}, {"molecule": "Cc1ccc(/C=C/C(=O)/C=C/c2ccc(C)cc2)cc1", "note": "[compound 13]", "values": [{"measurement": "inhibition at 1 µM", "setting": "Human Aβ(1–42); [4]", "result": 62, "unit": "%"}]}, {"molecule": "COc1cc(/C=C/C(=O)/C=C/c2ccc(O)c(OC)c2)ccc1O", "note": "[compound 14]", "values": [{"measurement": "inhibition at 1 µM", "setting": "Human Aβ(1–42)", "result": 58, "unit": "%"}]}, {"molecule": "O=C(/C=C/c1cccc(Cl)c1)/C=C/c1cccc(Cl)c1", "note": "[compound 15]", "values": [{"measurement": "inhibition at 1 µM", "setting": "Human Aβ(1–42); [4]", "result": 58, "unit": "%"}]}, {"molecule": "COc1cccc(/C=C/C(=O)/C=C/c2cccc(OC)c2)c1", "note": "[compound 16]", "values": [{"measurement": "inhibition at 1 µM", "setting": "Human Aβ(1–42); [4]", "result": 56, "unit": "%"}]}, {"molecule": "O=C(/C=C/c1cccc(C(F)(F)F)c1)/C=C/c1cccc(C(F)(F)F)c1", "note": "[compound 17]", "values": [{"measurement": "inhibition at 1 µM", "setting": "Human Aβ(1–42); [4]", "result": 55, "unit": "%"}]}, {"molecule": "CN(C)c1ccc(/C=C/C(=O)/C=C/c2ccc(N(C)C)cc2)cc1", "note": "[compound 18]", "values": [{"measurement": "inhibition at 1 µM", "setting": "Human Aβ(1–42); [4]", "result": 54, "unit": "%"}]}, {"molecule": "COc1cc(/C=C/C(=O)/C=C/c2ccc(OC(C)=O)c(OC)c2)ccc1OC(C)=O", "note": "[compound 19]", "values": [{"measurement": "inhibition at 1 µM", "setting": "Human Aβ(1–42); [4]", "result": 53, "unit": "%"}]}, {"molecule": "O=C(/C=C/c1ccc(O)cc1)/C=C/c1ccc(O)cc1", "note": "[compound 20]", "values": [{"measurement": "inhibition at 1 µM", "setting": "Human Aβ(1–42); [4]", "result": 49, "unit": "%"}]}, {"molecule": "COc1cc(/C=C/C(=O)CC(=O)/C=C/c2ccc(O)c(OC)c2)ccc1O", "note": "[curcumin]", "values": [{"measurement": "Effect on Aβ deposition", "setting": "[1]", "result": "reduced Aβ deposition; also recorded: significantly lowered Aβ deposition"}, {"measurement": "IC50", "setting": "[2]", "result": 0.8, "unit": "µM"}, {"measurement": "IC50", "setting": "[3]", "result": 1, "unit": "µM"}, {"measurement": "inhibition at 1 µM", "setting": "Human Aβ(1–42)", "result": 50, "unit": "%"}, {"measurement": "LD50 value (cytotoxicity, Wst-1)", "setting": "Murine microglial cells", "result": 40, "unit": "µM"}]}, {"molecule": "COc1cc(CCC(=O)CC(=O)CCc2ccc(O)c(OC)c2)ccc1O", "note": "[tetrahydrocurcumin]", "values": [{"measurement": "Aβ aggregation inhibitory activity", "setting": "Aβ aggregation", "result": "abolished Aβ aggregation inhibitory activity"}]}]}
